Reference: paper PMC7725003, “Systematically Studying the Optimal Amino Acid Distribution Patterns of the Amphiphilic Structure by Using the Ultrashort Amphiphiles” (Frontiers in Microbiology, 2020)
Where no end group is shown, it is not given here.

Tests used:
[1] = tested on: S. pullorum 7913; assay type: cell-based, Salmonella pullorum; conditions: 7913, 24 h
Method: (§1) The antimicrobial activities of the peptides were measured using a method adapted from the National Committee for Clinical Laboratory Standards (NCCLS) with some modifications ([Chou et al., 2016]). The specific procedure for these assays has been previously described. In brief, the bacterial cells were grown to a mid-logarithmic phase and diluted in MHB to an ultimate concentration of 0.5–1 × 10^6 CFU mL^–1. Subsequently, the peptides were consecutively diluted in a 0.2% BSA solution and then added to a bacterial solution in a 96-well plate at identical volumes. After incubation for 24 h at 37°C, the MICs were determined to be the lowest peptide concentration that inhibited 95% of the bacterial growth by monitoring the absorbance at 492 nm using a microplate reader. Subsequently, 50 μL of each incubation mixture was further transferred to agar plates and incubated overnight. The minimum bactericidal concentrations (MBCs) were determined as the lowest peptide concentration that killed greater than 99.9% of the bacterial cells. Every assay was reproduced more than 3 times.

[2] = tested on: Listeria monocytogenes CGMCC 1.1075; assay type: cell-based; conditions: CGMCC 1.1075, 24 h
Method: as §1

[3] = tested on: all of the tested bacterial strains; assay: Geometric mean of MICs, all tested bacterial strains; assay type: cell-based; conditions: for GM, All: geometric mean of MICs across all tested strains; for TI, All: therapeutic index TI = MHC/GM MIC
From the text: The antimicrobial activity of AMPs is the most decisive index for evaluating the clinical application of antimicrobial drugs. Many antimicrobial agents inhibit bacterial growth rather than kill the bacteria quickly, and long-term infections are pathogens that are not completely killed, which results in bacterial severe drug resistance. […] The geometric mean (GM) values of the MICs/MBCs of the two series across all of the tested bacterial strains are represented in Table 3, which depicts the average bacteriostatic/bactericidal level of a peptide.
as §1

[4] = tested on: E. coli UB1005; assay type: cell-based, Escherichia coli; conditions: UB1005, 24 h
Method: as §1

[5] = tested on: E. coli O78; assay type: cell-based, Escherichia coli; conditions: O78, 24 h
Method: as §1

[6] = tested on: E. coli 25922; assay type: cell-based, Escherichia coli; conditions: 25922, 24 h
Method: as §1

[7] = tested on: S. typhimurium 14028; assay type: cell-based, Salmonella typhimurium; conditions: 14028, 24 h
Method: as §1

[8] = tested on: S. typhimurium 7731; assay type: cell-based, Salmonella typhimurium; conditions: 7731, 24 h
Method: as §1

[9] = tested on: E. coli ATCC 25922; assay: Salt sensitivity assay (MIC); assay type: cell-based, Escherichia coli; conditions: for MIC, FeCl3: 4 μM FeCl3; for MIC, NH4Cl: 6 μM NH4Cl; for MIC, ZnCl2: 8 μM ZnCl2; for MIC, MgCl2: 1 mM MgCl2; for MIC, CaCl2: 2 mM CaCl2; for MIC, KCl: 4.5 mM KCl; for MIC, NaCl: 150 mM NaCl; for MIC, Control: no added salt, three independent assays
Method: as §1
(§2) The salt sensitivities of the peptides were determined. E. coli ATCC 25922 and S. aureus ATCC 29213 were incubated in the presence of various ultimate concentrations of physiological salts (150 mM NaCl, 4.5 mM KCl, 6 μM NH4Cl, 8 μM ZnCl2, 1 mM MgCl2, 2mM CaCl2, and 4 μM FeCl3) according to our previous protocol ([Yang et al., 2019]). These tests were performed under the MICs, and three independent assays were performed.

[10] = tested on: P. aeruginosa 27853; assay type: cell-based, Pseudomonas aeruginosa; conditions: 27853, 24 h
Method: as §1

[11] = tested on: S. aureus 29213; assay: Salt sensitivity assay (MIC); assay type: cell-based, Staphylococcus aureus; conditions: for MIC, FeCl3: 4 μM FeCl3; for MIC, NH4Cl: 6 μM NH4Cl; for MIC, ZnCl2: 8 μM ZnCl2; for MIC, MgCl2: 1 mM MgCl2; for MIC, CaCl2: 2 mM CaCl2; for MIC, KCl: 4.5 mM KCl; for MIC, NaCl: 150 mM NaCl; for MIC, Control: no added salt, three independent assays
Method: as §1, §2

[12] = tested on: MRSA 43300; assay type: cell-based, methicillin-resistant S. aureus; conditions: 43300, 24 h
Method: as §1

[13] = tested on: S. epidermidis 12228; assay type: cell-based, Staphylococcus epidermidis; conditions: 12228, 24 h
Method: as §1

[14] = tested on: Gram-negative bacteria; conditions: for GM, Gram-negative bacteria: geometric mean of MICs (Table 3); for TI, Gram-negative bacteria: therapeutic index TI = MHC/GM MIC
Method: (§3) The antimicrobial activity of AMPs is the most decisive index for evaluating the clinical application of antimicrobial drugs.
as §1, with “The minimum bactericidal concentrations (MBCs) were determined as the lowest peptide concentration that killed greater than 99.9% of the bacterial cells.” left out

[15] = tested on: Gram-positive bacteria; conditions: for GM, Gram-positive bacteria: geometric mean of MICs (Table 3); for TI, Gram-positive bacteria: therapeutic index TI = MHC/GM MIC
Method: as §3
as §1, with “The minimum bactericidal concentrations (MBCs) were determined as the lowest peptide concentration that killed greater than 99.9% of the bacterial cells.” left out

[16] = tested on: E. faecalis 29212; assay type: cell-based, Enterococcus faecalis; conditions: 29212, 24 h
Method: as §1

[17] = tested on: S. aureus 29213; assay type: cell-based, Staphylococcus aureus; conditions: 29213, 24 h
Method: as §1

[18] = tested on: S. aureus 25923; assay type: cell-based, Staphylococcus aureus; conditions: 25923, 24 h
Method: as §1

[19] = tested on: B. subtilis 63501; assay type: cell-based, Bacillus subtilis; conditions: 63501, 24 h
Method: as §1

WWRWWRRRW-NH2 [W1] was tested, and the MBC [1] was 8 µM, the MIC [1] was 4 µM and the MBC [2] was 16 µM. The MIC [2] was 8 µM, the “GM, All” value [3] was 3.51 µM and the “TI, All” value [3] was 18.23. The MBC [4] was 8 µM, the MIC [4] was 4 µM and the MBC [5] was 8 µM. It also gave an MIC [5] of 4 µM, an MBC [6] of 8 µM and an MIC [6] of 4 µM. For the same substance, the MBC [7] was 8 µM, the MIC [7] was 4 µM and the MBC [8] was 8 µM. The MIC [8] was 4 µM, the MIC, FeCl3 [9] was 2 µM and the MIC, NH4Cl [9] was 4 µM. For the same substance, the MIC, ZnCl2 [9] was 2 µM, the MIC, MgCl2 [9] was 2 µM and the MIC, CaCl2 [9] was 2 µM. For the same substance, the MIC, KCl [9] was 4 µM, the MIC, NaCl [9] was 8 µM and the MIC, Control [9] was 4 µM. For the same substance, the MBC [10] was 16 µM, the MIC [10] was 8 µM and the MIC, FeCl3 [11] was 2 µM. For the same substance, the MIC, NH4Cl [11] was 2 µM, the MIC, ZnCl2 [11] was 2 µM and the MIC, MgCl2 [11] was 2 µM. It also gave an MIC, CaCl2 [11] of 2 µM, an MIC, KCl [11] of 2 µM and an MIC, NaCl [11] of 4 µM. For the same substance, the MIC, Control [11] was 2 µM, the MBC [12] was 4 µM and the MIC [12] was 2 µM. For the same substance, the MBC [13] was 4 µM, the MIC [13] was 2 µM and the “GM, Gram-negative bacteria” value [14] was 4.67 µM. The “TI, Gram-negative bacteria” value [14] was 13.70, the “GM, Gram-positive bacteria” value [15] was 2.44 µM and the “TI, Gram-positive bacteria” value [15] was 26.23. The MBC [16] was 8 µM, the MIC [16] was 4 µM and the MBC [17] was 4 µM. For the same substance, the MIC [17] was 2 µM, the MBC [18] was 4 µM and the MIC [18] was 2 µM. For the same substance, the MBC [19] was 2 µM and the MIC [19] was 1 µM.

Substance WWWRRRRWW-NH2 [W4] has an MBC [1] of 8 µM, an MIC [1] of 4 µM and an MBC [2] of 32 µM. The MIC [2] was 16 µM, the “GM, All” value [3] was 4.18 µM and the “TI, All” value [3] was 30.62. It also gave an MBC [4] of 16 µM, an MIC [4] of 8 µM and an MBC [5] of 16 µM. For the same substance, the MIC [5] was 8 µM, the MBC [6] was 8 µM and the MIC [6] was 4 µM. It also gave an MBC [7] of 16 µM, an MIC [7] of 8 µM and an MBC [8] of 16 µM. The MIC [8] was 8 µM, the MIC, FeCl3 [9] was 4 µM and the MIC, NH4Cl [9] was 2 µM. It also gave an MIC, ZnCl2 [9] of 4 µM, an MIC, MgCl2 [9] of 16 µM and an MIC, CaCl2 [9] of 8 µM. For the same substance, the MIC, KCl [9] was 16 µM, the MIC, NaCl [9] was 16 µM and the MIC, Control [9] was 4 µM. For the same substance, the MBC [10] was 16 µM, the MIC [10] was 8 µM and the MIC, FeCl3 [11] was 2 µM. For the same substance, the MIC, NH4Cl [11] was 1 µM, the MIC, ZnCl2 [11] was 1 µM and the MIC, MgCl2 [11] was 1 µM. It also gave an MIC, CaCl2 [11] of 2 µM, an MIC, KCl [11] of 1 µM and an MIC, NaCl [11] of 1 µM. For the same substance, the MIC, Control [11] was 2 µM, the MBC [12] was 4 µM and the MIC [12] was 2 µM. The MBC [13] was 4 µM, the MIC [13] was 2 µM and the “GM, Gram-negative bacteria” value [14] was 5.88 µM. The “TI, Gram-negative bacteria” value [14] was 21.77, the “GM, Gram-positive bacteria” value [15] was 2.69 µM and the “TI, Gram-positive bacteria” value [15] was 47.58. For the same substance, the MBC [16] was 8 µM, the MIC [16] was 4 µM and the MBC [17] was 4 µM. For the same substance, the MIC [17] was 2 µM, the MBC [18] was 4 µM and the MIC [18] was 2 µM. It also gave an MBC [19] of 2 µM and an MIC [19] of 1 µM.
